On the set-up of data set [1]: method as in earlier work. Particulars: ref (20), (22), (24), (25), (27), (30), (31), (34); cited from earlier work.
Data set [2] can be described thus: Shake-flask drug solubility in absence of excipient (reference solubility). It counts as physicochemical. As to the method: (§1) Compendial media (0.1 N HCl pH 1, phosphate buffer pH 6.8) were prepared according to the method described in European Pharmacopoeia ([35]). Fasted State Simulated Gastric Fluid (FaSSGF) and Fasted State Simulated Intestinal Fluid (FaSSIF-V2) were prepared as described by Jantratid et al.([36]).
(§2) Drug solubility studies in the absence and presence of excipient were performed in triplicate using the shake-flask method ([38]). Drug excess amount and 2% w/w or 5% w/w of each excipient were weighed and placed in centrifuge tubes. […] The physical mixtures were vortexed for 3 min. Then 5 mL of each medium was added in the tubes and the samples were placed in a shaking water bath (37°C, 200 strokes per minute (spm)). […] Filter adsorption studies were prior performed in triplicate for each drug. […] Filtered samples were further diluted (if needed) with the corresponding medium and analysed by HPLC (Supplementary Table I). Analytical HPLC procedures for drug quantification in the samples were modifications of already published methods. Drug quantification was made based on calibration curves. Standards were formulated from concentrated stock solution consisting of drug dissolved in MeOH. […] Drug solubility was calculated based on the sample drug concentration measured.

The conditions of data set [3]: ref (20), (22), (23), (25), DrugBank, (28), (31), (33); cited from earlier work.
Data set [4] in a line: Relative effect (RE) of superdisintegrant on drug apparent solubility (shake-flask, physical mixtures). It counts as physicochemical. As to the method:
as §1, §2

Where [5] appears, read: aqueous buffer, thermodynamic from solid, Phosphate buffer pH 6.8 (compendial), 37°C, mean ± SD, read-out: Reference solubility.
The mark [6] stands for this setting: fassgf or other biorelevant, thermodynamic from solid, FaSSGF (biorelevant), 37°C, mean ± SD, read-out: Reference solubility.
[7] abbreviates: simulated gastric fluid, thermodynamic from solid, 0.1 N HCl pH 1 (compendial), 37°C, mean ± SD, read-out: Reference solubility.
Where [8] appears, read: thermodynamic from solid, FaSSIF-V2 (biorelevant), 37°C, mean ± SD, read-out: Reference solubility.

The term solubility denotes the concentration that dissolves in the medium under given conditions.

SMILES strings stand for the structures. Converted amounts (≈) assume the structure as drawn. Like-named read-outs stand apart in the source and are kept apart here.

For `NC(=O)N1c2ccccc2C=Cc2ccccc21` [CBZ, Carbamazepine], the “Solubility (based on BCS classification)” value in data set [1] was “Low (27)”. The solubility at 24 h was 227 µg/mL (≈ 961 µM) in data set [2] (setting [5]); 250 µg/mL (≈ 1060 µM) in data set [2] (compendial media (0.1 N HCl pH 1; phosphate buffer pH 6.8), compendial media, read-out: Solubility of pure drug); 368 µg/mL (≈ 1560 µM) in data set [2] (setting [6]); 265 µg/mL (≈ 1120 µM) in data set [2] (setting [7]); 280 µg/mL (≈ 1190 µM) in data set [2] (setting [8]). Also, the solubility at 0.5 h in data set [2] (compendial media (0.1 N HCl pH 1; phosphate buffer pH 6.8), 37 °C, thermodynamic from solid, compendial media, 0.5 h, read-out: Solubility of pure drug) was found to be 350 µg/mL (≈ 1480 µM). For the same molecule, in data set [3], the “Ionization (type)” value is given as “Neutral”. Moreover, the “Relative effect (RE) of excipient on drug solubility” value (from here on “Relative effect (RE) of excipient”) in data set [4] (CCS(L), high level, phosphate buffer pH 6.8, 24 h) was determined as 37%.

Regarding `CC(=O)Nc1ccc(O)cc1` [PRC, Paracetamol], the solubility at 24 h in data set [2] (setting [5]) was 15000 µg/mL (≈ 99200 µM); in data set [2] (setting [6]), 17000 µg/mL (≈ 112000 µM); in data set [2] (setting [7]) it was 16000 µg/mL (≈ 106000 µM); in data set [2] (setting [8]) it was 17000 µg/mL (≈ 112000 µM). Moreover, the “Ionization (type)” value in data set [3] is given as “Neutral”.

As for `CCC(C)n1ncn(-c2ccc(N3CCN(c4ccc(OCC5COC(Cn6cncn6)(c6ccc(Cl)cc6Cl)O5)cc4)CC3)cc2)c1=O` (centres unmarked) [ITZ, Itraconazole], the “Solubility (based on BCS classification)” value in data set [1] is “Low (34)”. The solubility at 24 h was < 0.015 µg/mL in data set [2] (setting [5]), 1.2 µg/mL (≈ 1.7 µM) in data set [2] (setting [6]), 11 µg/mL (≈ 15.6 µM) in data set [2] (setting [7]) and 0.05 µg/mL (≈ 0.0709 µM) in data set [2] (setting [8]). For the same molecule, in data set [3], the “Ionization (type)” value is “Weak base”. Besides, the “Relative effect (RE) of excipient” value in data set [4] (5% CCS(H), FaSSIF-V2, 24 h) was 31%; in data set [4] (CCS(H), low level, FaSSIF-V2, 24 h), −40%; in data set [4] (Explotab CLV (SSG), high excipient level, FaSSIF-V2, 24 h), 25%; in data set [4] (Glycolys (SSG), both excipient levels, FaSSIF-V2, 24 h), “approximately 50%”; in data set [4] (Glycolys (SSG), high excipient level, 0.1 N HCl pH 1, 24 h), −25%; in data set [4] (Glycolys (SSG), low excipient level, 0.1 N HCl pH 1, 24 h) it was −23%. In addition, the “Relative effect (RE) of excipient” value in data set [4] (Glycolys LV (SSG), high excipient level, FaSSIF-V2, 24 h) is 42%.

Take `CC(C)Cc1ccc(C(C)C(=O)O)cc1` (centres unmarked) [IBU, Ibuprofen]: the solubility at 24 h is 5500 µg/mL (≈ 26700 µM) in data set [2] (setting [5]), 44 µg/mL (≈ 213 µM) in data set [2] (setting [6]), 43 µg/mL (≈ 208 µM) in data set [2] (setting [7]) and 1500 µg/mL (≈ 7270 µM) in data set [2] (setting [8]). Further, the “Ionization (type)” value in data set [3] is listed as “Weak acid”.

Turning to `OCCN(CCO)c1nc(N2CCCCC2)c2nc(N(CCO)CCO)nc(N3CCCCC3)c2n1` [DPL, Dipyridamole], the “Solubility (based on BCS classification)” value in data set [1] was “Low (30)”. Moreover, the solubility at 24 h in data set [2] (setting [5]) is 5 µg/mL (≈ 9.91 µM); in data set [2] (setting [6]) it was 8600 µg/mL (≈ 17000 µM); in data set [2] (setting [7]) it was 13000 µg/mL (≈ 25800 µM); in data set [2] (setting [8]), 13 µg/mL (≈ 25.8 µM). Besides, in data set [3], the “Ionization (type)” value is “Weak base”.

Source of the values: paper PMC7012964, “Biopharmaceutical Understanding of Excipient Variability on Drug Apparent Solubility Based on Drug Physicochemical Properties. Case Study: Superdisintegrants” (The AAPS Journal, 2020).
